Values joined by “and” are separate entries in the source; they are usually repeats but may differ in a detail not shown here. Equal values may be shown once. “Also recorded” adds a separate entry of the source. One block for each compound: values may come before it.
Tests used:
[1] = Particle size and polydispersity index (PDI) of lipid nanoparticles by dynamic light scattering; format: physicochemical; conditions: LNP formulation of Example 4, cationic lipid/DSPC/cholesterol/DMG-PEG2000 50:10:38.5:1.5; 25° C., 90° scattering angle
Method: The particle size and polydispersity index (PDI) were determined by dynamic light scattering using Malvern laser particle size analyzer.
10 μL of the liposome solution was weighed, diluted to 1 mL with RNase-free deionized water, and added to the sample pool. Each sample was measured in triplicate. The measurement conditions were: 90° scattering angle, and 25° C.

female BALB/C mice = experiment: Mouse live imaging test of LNP formulations of Fluc-mRNA; format: in vivo; conditions: for expression intensity of Fluc-mRNA in mice over time (in words): 3 h to 72 h after intramuscular injection
Method: A LNP formulation containing 10 μg of Fluc-mRNA was intramuscularly injected into female BALB/C mice aged 4-6 weeks and weighing 17-19 g, and at specific time points (3 h, 6 h, 24 h, 48 h and 72 h) after administration, mice were injected intraperitoneally with a fluorescent imaging substrate. The mice moved freely for 5 minutes, and then the average radiation intensity (corresponding to fluorescence expression intensity) of the protein expressed by the mRNA carried by LNP in mice was detected using the IVIS Spectrum small animal live imager.
To compare the protein expression and duration in mice of LNP formulations prepared from cationic lipid YK-009 and compound 25, we prepared LNP formulations with Fluc-mRNA contents of 10 μg, 7.5 μg, 5 μg and 2.5 μg (the carrier components of LNP formulations were cationic lipid, neutral lipid, structured lipid and polymer-conjugated lipid with a molar ratio of 50:10:38.5:1.5, wherein the cationic lipid was YK-009 or compound 25). The mouse live imaging test method was the same as above.

293T cells [2] = experiment: Cell survival rate assay (CCK-8); format: cell-based; conditions: for Cell survival rate (%) / reduction in the cell survival rate compared with YK-009: 24 hours; for reduction in the cell survival rate compared with YK-009: LNP formulation of Fluc-mRNA
Method: (§1) Cell recovery and passage: 293T cells were recovered, cultured in a culture dish, and passaged to the required number of cells.
(§2) Seeding plate: The cells in the culture dish were digested and counted. Cells were spread in a 96-well plate at 10,000 cells per well and in a 12-well plate at 150,000 cells per well. Cells were cultured overnight until the cells adhered to the wall.
A LNP formulation containing 1.5 μg of Fluc-mRNA (the carrier component of the LNP formulation was cationic lipid, neutral lipid, structured lipid and polymer-conjugated lipid with a molar ratio of 50:10:38.5:1.5, wherein the cationic lipid was listed in Table 1) was added to the cell culture medium of a 96-well plate, and further cultivated for 24 hours. 10 μL of CCK-8 solution was then added to each well, and the culture plate was incubated in an incubator for 1 hour. The absorbance at 450 nm was measured by a microplate reader.
To compare the cytotoxicity of LNP formulations prepared from cationic lipid YK-009 and compound 25, we prepared LNP formulations with Fluc-mRNA contents of 1.5 μg, 1.125 μg, 0.75 μg and 0.375 μg (the carrier components of LNP formulations were cationic lipid, neutral lipid, structured lipid and polymer-conjugated lipid with a molar ratio of 50:10:38.5:1.5, wherein the cationic lipid was YK-009 or compound 25). The assay method of cell survival rate was the same as above.

293T cells [3] = experiment: Fluorescent detection of Fluc-mRNA (transfection efficiency of LNP formulations in cells); format: cell-based
Method: as §1, §2
A LNP formulation containing 0.3 μg of Fluc-mRNA (the carrier components of the LNP formulation were cationic lipid, neutral lipid, structured lipid and polymer-conjugated lipid with a molar ratio of 50:10:38.5:1.5, wherein the cationic lipid was listed in Table 1) was added to the cell culture medium of a 96-well plate, and further incubated for 24 hours. The corresponding reagent was added according to the instructions of the […] Luciferase Assay Kit, and the fluorescence expression intensity of each well was detected by an IVIS fluorescence detection system. This test verified the transfection efficiency of LNP formulations in cells.
In order to further compare the intracellular transfection efficiency of LNP formulations prepared from cationic lipid YK-009 and compound 25, we prepared LNP formulations with Fluc-mRNA contents of 0.3 μg, 0.225 μg, 0.15 μg and 0.075 μg, respectively (the carrier components of the LNP formulation were cationic lipid, neutral lipid, structured lipid and polymer-conjugated lipid with a molar ratio of 50:10:38.5:1.5, wherein the cationic lipid was YK-009 or compound 25). The intracellular transfection activity of the prepared LNP formulations was detected, and the detection method was the same as above.

[4] = LNP formulation containing 1.5 μg of Fluc-mRNA
[5] = mRNA transfection, time not stated

PDI (%) [1]: 24.4%
Particle size (nm) [1]: 114.12 nm
Compound: CCCCCCCCCOC(=O)CCCCCCCN(CCO)CCCCCCCCCC(=O)OC(CCCCCCCC)CCCCCCCC [Compound 23, nonyl 8-((2-hydroxyethyl)(10-((9-heptadecyl)oxy)-10-oxodecyl)amino)octanoate, reference compound]
expression intensity of Fluc-mRNA in mice over time (in words) (female BALB/C mice): decreased rapidly between 6 h and 48 h
Cell survival rate (%) (293T cells [2]; [4]): 87%
reduction in the cell survival rate compared with YK-009 (293T cells [2]): 13%

Compound: CCCCCCCCCCCOC(=O)CCCCCN(CCO)CCCCCCCC(=O)OC(CCCCCCCC)CCCCCCCC [Compound 25, reference compound]
PDI (%) [1]: 23.1%
Particle size (nm) [1]: 117.10 nm
expression intensity of Fluc-mRNA in mice over time (in words) (female BALB/C mice): decreased rapidly at 6˜48 h
Cell survival rate (%) (293T cells [2]; Fluc-mRNA content 0.375 μg): 99%
Cell survival rate (%) (293T cells [2]; Fluc-mRNA content 0.75 μg): 97%
Cell survival rate (%) (293T cells [2]; Fluc-mRNA content 1.125 μg): 95%
Cell survival rate (%) (293T cells [2]; Fluc-mRNA content 1.5 μg): 91%

PDI (%) [1]: 13.6%
Particle size (nm) [1]: 178.85 nm
Compound: CCCCCCCCCOC(=O)CCCCCCCN(CCO)CCCCCC(=O)OC(CCCCCCCC)CCCCCCCC [Compound 27, nonyl 8-((2-hydroxyethyl)(6-((9-heptadecyl)oxy)-6-oxohexyl)amino)octanoate, reference compound]
expression intensity of Fluc-mRNA in mice over time (in words) (female BALB/C mice): decreased rapidly between 6 h and 48 h
Cell survival rate (%) (293T cells [2]; [4]): 84%
reduction in the cell survival rate compared with YK-009 (293T cells [2]): 16%

PDI (%) [1]: 18.3%
Particle size (nm) [1]: 205.20 nm
Compound: CCCCC/C=C\C/C=C\CCCCCCCCC(CCCCCCCC/C=C\C/C=C\CCCCC)OC(=O)CCCN(C)C [MC3, reference compound]
expression intensity of Fluc-mRNA in mice over time (in words) (female BALB/C mice): very low at each time
Cell survival rate (%) (293T cells [2]; [4]): 88%

PDI (%) [1]: 10.2%
Particle size (nm) [1]: 164.03 nm
Compound: CCCCCCCCCCCOC(=O)CCCN(CCO)CCCCCC(=O)OCC(CCCCCCCC)CCCCCCCC [YK-001, 2-octyldecyl 6-((4-(undecyloxy)-4-oxobutyl) (2-hydroxyethyl)amino)hexanoate]
Cell survival rate (%) (293T cells [2]; [4]): 85%

PDI (%) [1]: 27.7%
Particle size (nm) [1]: 156.70 nm
Compound: CCCCCCCCCCOC(=O)CCCCN(CCO)CCCCCC(=O)OCC(CCCCCCCC)CCCCCCCC [YK-002, 2-octyldecyl 6-((5-(decyloxy)-5-oxopentyl)(2-hydroxyethyl)amino)hexanoate]
Cell survival rate (%) (293T cells [2]; [4]): 89%
reduction in the cell survival rate compared with YK-009 (293T cells [2]): 11%

PDI (%) [1]: 21.3%
Particle size (nm) [1]: 119.91 nm
Compound: CCCCCCCCCCOC(=O)CCCCCN(CCO)CCCCCC(=O)OCC(CCCCCCCC)CCCCCCCC [YK-003, 2-octyldecyl 6-((6-(decyloxy)-6-oxohexyl)(2-hydroxyethyl)amino)hexanoate]
expression intensity of Fluc-mRNA in mice over time (in words) (female BALB/C mice): highest expression intensity
expression in mice, times higher than that for MC3 (female BALB/C mice; [5]): more than 18 times
expression in mice, times higher than that for compound 23 (female BALB/C mice; [5]): > 8 times
Cell survival rate (%) (293T cells [2]; [4]): 84%

PDI (%) [1]: 9.7%
Particle size (nm) [1]: 190.65 nm
Compound: CCCCCCCCCCOC(=O)CCCN(CCO)CCCC(=O)OCC(CCCCCCCC)CCCCCCCC [YK-004, 2-octyldecyl 4-((4-(decyloxy)-4-oxobutyl)(2-hydroxyethyl)amino)butyrate]
Cell survival rate (%) (293T cells [2]; [4]): 87%

PDI (%) [1]: 17.3%
Particle size (nm) [1]: 148.75 nm
Compound: CCCCCCCCCCOC(=O)CCCN(CCO)CCCCCCCC(=O)OC(CCCCCCCC)CCCCCCCC [YK-005, 9-heptadecyl 8-((4-(decyloxy)-4-oxobutyl)(2-hydroxyethyl)amino)octanoate]
Cell survival rate (%) (293T cells [2]; [4]): 88%

PDI (%) [1]: 22.9%
Particle size (nm) [1]: 125.35 nm
Compound: CCCCCCCCCCOC(=O)CCCN(CCO)CCCCC(=O)OCC(CCCCCCCC)CCCCCCCC [YK-006, 2-octyldecyl 5-((4-(decyloxy)-4-oxobutyl)(2-hydroxyethyl)amino)pentanoate]
Cell survival rate (%) (293T cells [2]; [4]): 96%

PDI (%) [1]: 13.6%
Particle size (nm) [1]: 178.06 nm
Compound: CCCCCCCCCCCOC(=O)CCCCCN(CCO)CCCCCC(=O)OCC(CCCCCCCC)CCCCCCCC [YK-007, 2-octyldecyl 6-((2-hydroxyethyl)(6-oxo-6-(undecyloxy)hexyl)amino)hexanoate]
Cell survival rate (%) (293T cells [2]; [4]): 96%

PDI (%) [1]: 24.4%
Particle size (nm) [1]: 205.00 nm
Compound: CCCCCCCCCOC(=O)CCCN(CCO)CCCCCC(=O)OCC(CCCCCCCC)CCCCCCCC [YK-008, 2-octyldecyl 6-((4-(nonyloxy)-4-oxobutyl)(2-hydroxyethyl)amino)hexanoate]
Cell survival rate (%) (293T cells [2]; [4]): 91%

PDI (%) [1]: 18.2%
Particle size (nm) [1]: 136.44 nm
Compound: CCCCCCCCCCOC(=O)CCCN(CCO)CCCCCC(=O)OCC(CCCCCCCC)CCCCCCCC [YK-009, 2-octyldecyl 6-((4-(decyloxy)-4-oxobutyl)(2-hydroxyethyl)amino)hexanoate]
RLU value / cell transfection efficiency, times that of MC3 (293T cells [3]; Fluc-mRNA LNP formulation): 42 times and 40 times
RLU value / cell transfection efficiency, times that of YK-004 (293T cells [3]; Fluc-mRNA LNP formulation): 39 times
RLU value / cell transfection efficiency, times that of YK-010 (293T cells [3]; Fluc-mRNA LNP formulation): 58 times and ~60 times
RLU value / cell transfection efficiency, times that of compound 27 (293T cells [3]; Fluc-mRNA LNP formulation): 13 times
fluorescence absorption, times that of the compound 25 formulation (293T cells [3]; LNP formulation containing 0.075 μg of Fluc-mRNA): 3.7 times
fluorescence absorption, times that of the compound 25 formulation (293T cells [3]; LNP formulation containing 0.15 μg of Fluc-mRNA): 4.0 times
fluorescence absorption, times that of the compound 25 formulation (293T cells [3]; LNP formulation containing 0.225 μg of Fluc-mRNA): 7.0 times
fluorescence absorption, times that of the compound 25 formulation (293T cells [3]; LNP formulation containing 0.3 μg of Fluc-mRNA): 4.4 times
cell transfection efficiency, fold compared with compound 25 (293T cells [3]; mRNA transfection, content not stated): 7 times
expression intensity of Fluc-mRNA in mice over time (in words) (female BALB/C mice): highest expression intensity; also recorded: maintain high expression in vivo for a long time
expression in mice, times higher than that for MC3 (female BALB/C mice; [5]): more than 25 times
expression in mice, times higher than that for compound 27 (female BALB/C mice; [5]): > 6 times
increase in expression in mice compared with compound 25 (female BALB/C mice; [5]): 7 fold
difference in toxicity to transfected cells between YK-009 and YK-010 (293T cells [2]): ≥ 25%
Cell survival rate (%) (293T cells [2]; Fluc-mRNA content 0.375 μg): 100%
Cell survival rate (%) (293T cells [2]; Fluc-mRNA content 0.75 μg): 100%
Cell survival rate (%) (293T cells [2]; Fluc-mRNA content 1.125 μg): 100%
Cell survival rate (%) (293T cells [2]; Fluc-mRNA content 1.5 μg): 100%
Cell survival rate (%) (293T cells [2]; [4]): 100%
reduction in toxicity to transfected cells compared with compound 25 (293T cells [2]; mRNA transfection): 9%
toxicity to transfected cells, lower than that of MC3 (293T cells [2]; mRNA transfection): 12%
toxicity to transfected cells, lower than that of compound 23 (293T cells [2]; mRNA transfection): 13%
toxicity to transfected cells, lower than that of compound 27 (293T cells [2]; mRNA transfection): 16%

PDI (%) [1]: 19.8%
Particle size (nm) [1]: 124.46 nm
Compound: CCCCCCCCCCOC(=O)CCCN(CCO)CCCCCC(=O)OCC(CCCCCCC)CCCCCCC [YK-010, 2-heptylnonyl 6-((4-(decyloxy)-4-oxobutyl)(2-hydroxyethyl)amino)hexanoate]
Cell survival rate (%) (293T cells [2]; [4]): 77%
reduction in the cell survival rate compared with YK-009 (293T cells [2]): 23%

PDI (%) [1]: 21.2%
Particle size (nm) [1]: 173.16 nm
Compound: CCCCCCCCCCOC(=O)CCCN(CCO)CCCCCC(=O)OCC(CCCCCC)CCCCCC [YK-011, 2-hexyloctyl 6-((4-(decyloxy)-4-oxobutyl)(2-hydroxyethyl)amino)hexanoate]
Cell survival rate (%) (293T cells [2]; [4]): 98%

Source: US12171876B2, “Cationic lipid compound, composition containing same and use thereof” (HANGZHOU TIANLONG PHARMACEUTICAL CO., LTD., priority 2022, dated 2024)
